# Columns and labels:
# [1] = biological target: T1, arrestin-1 (monomerizing mutant F85A, F197A) (Bos taurus, UniProt P08168, F197A/F85A); experiment: Fluorescence anisotropy binding of fluorescein-labelled peptides to arrestin-1; parameters: species or system bovine
# T1 construct: made in house; host or cells: E. coli NiCo (DE3) cells (New England Biolabs), pET-15b vector
# Description: Synthesized cDNAs of bovine arrestin-1, human arrestin-2 and human arrestin-3 were ordered from Genewiz, amplified by PCR and cloned (Supplementary Information Table 5) into the pET-15b vector (Novagen), using the Gibson Assembly protocol. The constructs contained an N-terminal hexa histidine tag linked by a linker that contained a Tobacco Etch Virus cleavage site (TEV; […]). PCR was used to introduce the monomerizing arrestin-1 mutations (F85A, F197A)[58]. Note that this mutant was employed for fluorescence anisotropy, trypsin digestion, and NMR experiments. Wild-type arrestin-2 and -3 were used for fluorescence anisotropy and trypsin digestion experiments. […] The arrestin-1 in this construct had the wild-type sequence. Note that this construct differs slightly from that previously published[59],[60] and was optimized for purification. We verified the functionality of this fusion construct using the standard centrifugal pull-down assay using phosphorylated rhodopsin in native ROS membranes.
# 0.1–0.2 mg of lyophilized peptide was dissolved in 50 µl of 50 mM phosphate-buffered saline (PBS) buffer at pH 7.0, and then two molar equivalents of fluorescein-5-maleimide dye stock dissolved in dimethylsulfoxid was added. The reaction was carried out at RT in the dark. After 1 h the reaction was topped up with 1 ml of ice-cold 100% acetone and stored until the next day at −20 °C. The precipitated peptide was centrifuged (13,000 × g) for 10 min. The labeled and precipitated peptide was sedimented, and the supernatant was removed. The peptide was resuspended again in ice-cold acetone, stored for 1 h at −20 °C and centrifuged (13,000 × g) for 10 min. […] The precipitated peptide was dried at RT in the dark. It was dissolved in 50 µl of 20 mM Bis-Tris propane pH 7.0 and 150 mM NaCl and its concentration was determined by absorbance. A molar extinction coefficient of 70,000/M/cm at pH 7.0 was assumed for calculating the concentration of the labeled peptide stock.
# An 11-step serial dilution series of arrestin in 20 mM Bis-Tris propane pH 7.0, 150 mM NaCl, 8 mM 2‑mercaptoethanol, 2% (w/w) BSA, 0.02% (v/v) Tween-20 was prepared and transferred to a black high-bottom 384-well plate (Greiner). As control for free peptide, a position with only buffer was included. The peptide was added at a final concentration of 20 nM to each well. The plate was closed by a clear cover and vortexed for 15 s. Afterwards it was centrifuged (800 × g) for 2 min and stored at RT for 20 min. The reading was performed by default settings of PHERAstar plate-reader (BMG Labtech) and excitation‑/emission-wavelengths of 485 nm (12 nm bandpass)/520 nm (30 nm bandpass) were used. The analysis was performed using Origin2016 (Microcal Inc) software by fitting the data to a one-to-one binding model:2 r=R0+△R*P/Kd+P, where r stands for anisotropy, R0 stands for anisotropy of the ligand, ΔR stands for anisotropy of the complex minus anisotropy of the ligand, P stands for the concentration of protein, and Kd stands for the dissociation constant of the ligand.
# [2] = system: arrestin-1; experiment: [15N,1H]TROSY NMR titration of arrestin-1 with peptide; type: binding, bovine; conditions: peptide:arrestin-1 up to 10:1
# Protocol: ^2H,^15N,^13C-labeled arrestin-1 aliquots were thawed quickly under running water, transferred to 30 kDa-cutoff Vivaspin (0.5 ml, Sartorius) centrifugal spin concentrators, and concentrated to approximately 600 μM. The concentrator was immediately transferred into a beaker filled with 400 ml of NMR buffer 1 or 2 (see below) carried by a floatation device. The dialysis was performed at 4 °C overnight. On the next day the concentration was determined by UV absorbance at 280 nm (molar extinction coefficient 26,360/mol/cm). […] The dialysis was performed at 4 °C overnight, and the peptide concentration was determined by its absorbance at 205 nm (molar extinction coefficient: 54,310/mol/cm). […]
# NMR measurements were performed on Bruker Avance III-HD 600 or 900 MHz spectrometer using a CTCI cryo-cooled probehead. […] Pulse lengths were calibrated for ^1H manually and for ^13C/^15N using an in-house automated procedure. pH was monitored using the position of the phosphate signal in NMR buffer 2 as an internal reference and varied by no more than 0.03 pH units during peptide titration experiments. [^15N,^1H]TROSY experiments were recorded with internal ETH pulse sequences, whereas 3D triple resonance TROSY experiments were recorded using the manufacturer’s pulse sequences. […]
# T1 sequence (P08168 whole entry F85A/F197A): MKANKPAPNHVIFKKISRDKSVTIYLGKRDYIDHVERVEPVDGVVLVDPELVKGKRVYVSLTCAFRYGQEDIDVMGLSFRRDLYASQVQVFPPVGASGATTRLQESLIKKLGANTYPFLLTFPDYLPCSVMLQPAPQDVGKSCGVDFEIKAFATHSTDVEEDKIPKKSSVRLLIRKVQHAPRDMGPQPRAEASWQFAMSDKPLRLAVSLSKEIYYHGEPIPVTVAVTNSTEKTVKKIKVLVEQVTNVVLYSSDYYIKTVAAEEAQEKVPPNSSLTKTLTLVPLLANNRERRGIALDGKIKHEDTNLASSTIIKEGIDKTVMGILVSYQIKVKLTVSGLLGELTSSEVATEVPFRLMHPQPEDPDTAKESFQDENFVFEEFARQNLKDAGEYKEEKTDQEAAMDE
sequence,measurement,setting,value
"CDDEASTTVSKTETSQVAPA [5P, multiply phosphorylated rhodopsin C-terminus peptide lacking key site pS343]",binding to arrestin-1 (in words),[1],significant loss of affinity
same,NMR chemical shift / peak changes in arrestin-1 (in words),[2],minimal chemical shift changes

# — publication PMC6424980, “Distinct G protein-coupled receptor phosphorylation motifs modulate arrestin affinity and activation and global conformation” (Nature Communications, 2019)
